ChEMBL document CHEMBL5321262, “Antiviral Activity of Cannabidiolic Acid and Its Methyl Ester against SARS-CoV-2” (J Nat Prod, 2023)
Calls of active or inactive are those of the source.

How the values were obtained:
[1] = system: SARS-CoV-2; test: Antiviral activity against SARS-CoV-2 variant Omicron BA.2 infected in African green monkey Vero E6 cells assessed as reduction in virus titers of progeny virus in supernatant measured after 72 hrs by CPE assay; assay type: functional, organism-based; conditions: Severe acute respiratory syndrome coronavirus 2, Omicron BA.2, Vero C1008, 72 h
[2] = system: SARS-CoV-2; test: Antiviral activity against SARS-CoV-2 variant Omicron BA.5 infected in African green monkey Vero E6 cells assessed as inhibition of virus titers of progeny virus in supernatant at 37.5 uM measured after 72 hrs by CPE assay relative to control; assay type: functional; conditions: Severe acute respiratory syndrome coronavirus 2, Omicron BA.5, Vero C1008
[3] = system: SARS-CoV-2; test: Antiviral activity against SARS-CoV-2 variant Omicron BA.3 infected in African green monkey Vero E6 cells assessed as reduction in viral replication at 37.5 uM measured at 72 hrs post-infection by qRT-PCR analysis; assay type: functional, organism-based; conditions: Severe acute respiratory syndrome coronavirus 2
[4] = system: SARS-CoV-2; test: Antiviral activity against SARS-CoV-2 variant Omicron BA.1 infected in African green monkey Vero E6 cells assessed as inhibition of virus titers of progeny virus in supernatant at 37.5 uM measured after 72 hrs by CPE assay relative to control; assay type: functional; conditions: Severe acute respiratory syndrome coronavirus 2, Omicron BA.1, Vero C1008
[5] = system: SARS-CoV-2; test: Antiviral activity against SARS-CoV-2 variant Omicron BA.4 infected in African green monkey Vero E6 cells assessed as reduction in viral replication at 37.5 uM measured at 72 hrs post-infection by qRT-PCR analysis; assay type: functional, organism-based; conditions: Severe acute respiratory syndrome coronavirus 2
[6] = system: SARS-CoV-2; test: Antiviral activity against SARS-CoV-2 variant Omicron BA.2 infected in African green monkey Vero E6 cells assessed as inhibition of virus titers of progeny virus in supernatant at 37.5 uM measured after 72 hrs by CPE assay relative to control; assay type: functional; conditions: Severe acute respiratory syndrome coronavirus 2, Omicron BA.2, Vero C1008
[7] = system: SARS-CoV-2; test: Antiviral activity against SARS-CoV-2 variant Omicron BA.1 infected in African green monkey Vero E6 cells assessed as reduction in virus-induced cytopathic effect at 37.5 uM preincubated with virus for 1 hr followed by infection with cells and measured after 72 hrs by microscopic analysis; assay type: functional, organism-based; conditions: Severe acute respiratory syndrome coronavirus 2, time 73.0 hrs
[8] = system: SARS-CoV-2; test: Antiviral activity against SARS-CoV-2 variant Omicron BA.1 infected in African green monkey Vero E6 cells assessed as reduction in viral replication at 37.5 uM measured at 72 hrs post-infection by qRT-PCR analysis; assay type: functional, organism-based; conditions: Severe acute respiratory syndrome coronavirus 2
[9] = system: SARS-CoV-2; test: Antiviral activity against SARS-CoV-2 variant Omicron BA.4 infected in African green monkey Vero E6 cells assessed as reduction in virus titers of progeny virus in supernatant measured after 72 hrs by CPE assay; assay type: functional, organism-based; conditions: Severe acute respiratory syndrome coronavirus 2, Omicron BA.4, Vero C1008, 72 h
[10] = system: SARS-CoV-2; test: Antiviral activity against SARS-CoV-2 variant Delta infected in African green monkey Vero E6 cells assessed as reduction in virus titers of progeny virus in supernatant measured after 72 hrs by CPE assay; assay type: functional, organism-based; conditions: Severe acute respiratory syndrome coronavirus 2, Delta, Vero C1008, 72 h
[11] = system: SARS-CoV-2; test: Antiviral activity against SARS-CoV-2 variant Omicron BA.5 infected in African green monkey Vero E6 cells assessed as reduction in virus titers of progeny virus in supernatant measured after 72 hrs by CPE assay; assay type: functional, organism-based; conditions: Severe acute respiratory syndrome coronavirus 2, Omicron BA.5, Vero C1008, 72 h
[12] = system: SARS-CoV-2; test: Antiviral activity against SARS-CoV-2 variant Delta infected in African green monkey Vero E6 cells assessed as reduction in virus-induced cytopathic effect at 37.5 uM preincubated with virus for 1 hr followed by infection with cells and measured after 72 hrs by microscopic analysis; assay type: functional, organism-based; conditions: Severe acute respiratory syndrome coronavirus 2, time 73.0 hrs
[13] = system: SARS-CoV-2; test: Antiviral activity against SARS-CoV-2 variant Omicron BA.1 infected in African green monkey Vero E6 cells assessed as reduction in virus titers of progeny virus in supernatant measured after 72 hrs by CPE assay; assay type: functional, organism-based; conditions: Severe acute respiratory syndrome coronavirus 2, Omicron BA.1, Vero C1008, 72 h
[14] = system: SARS-CoV-2; test: Antiviral activity against SARS-CoV-2 variant Delta infected in African green monkey Vero E6 cells assessed as inhibition of virus titers of progeny virus in supernatant at 37.5 uM measured after 72 hrs by CPE assay relative to control; assay type: functional; conditions: Severe acute respiratory syndrome coronavirus 2, Delta, Vero C1008
[15] = system: SARS-CoV-2; test: Antiviral activity against SARS-CoV-2 variant Omicron BA.3 infected in African green monkey Vero E6 cells assessed as inhibition of virus titers of progeny virus in supernatant at 37.5 uM measured after 72 hrs by CPE assay relative to control; assay type: functional; conditions: Severe acute respiratory syndrome coronavirus 2, Omicron BA.3, Vero C1008
[16] = system: SARS-CoV-2; test: Antiviral activity against SARS-CoV-2 variant Omicron BA.3 infected African green monkey Vero E6 cells assessed as reduction in virus-induced cytopathic effect at 37.5 uM preincubated with virus for 1 hr followed by infection with cells and measured after 72 hrs by microscopic analysis; assay type: functional, organism-based; conditions: Severe acute respiratory syndrome coronavirus 2, time 73.0 hrs
[17] = system: SARS-CoV-2; test: Antiviral activity against SARS-CoV-2 variant Delta infected in African green monkey Vero E6 cells assessed as reduction in viral replication at 37.5 uM measured at 72 hrs post-infection by qRT-PCR analysis; assay type: functional, organism-based; conditions: Severe acute respiratory syndrome coronavirus 2
[18] = system: SARS-CoV-2; test: Antiviral activity against SARS-CoV-2 variant Omicron BA.5 infected African green monkey Vero E6 cells assessed as reduction in virus-induced cytopathic effect at 37.5 uM preincubated with virus for 1 hr followed by infection with cells and measured after 72 hrs by microscopic analysis; assay type: functional, organism-based; conditions: Severe acute respiratory syndrome coronavirus 2, time 73.0 hrs
[19] = system: SARS-CoV-2; test: Antiviral activity against SARS-CoV-2 variant Omicron BA.5 infected in African green monkey Vero E6 cells assessed as reduction in viral replication at 37.5 uM measured at 72 hrs post-infection by qRT-PCR analysis; assay type: functional, organism-based; conditions: Severe acute respiratory syndrome coronavirus 2
[20] = system: SARS-CoV-2; test: Antiviral activity against SARS-CoV-2 variant Omicron BA.2 infected in African green monkey Vero E6 cells assessed as reduction in viral replication at 37.5 uM measured at 72 hrs post-infection by qRT-PCR analysis; assay type: functional, organism-based; conditions: Severe acute respiratory syndrome coronavirus 2
[21] = system: SARS-CoV-2; test: Antiviral activity against SARS-CoV-2 variant Omicron BA.4 infected in African green monkey Vero E6 cells assessed as inhibition of virus titers of progeny virus in supernatant at 37.5 uM measured after 72 hrs by CPE assay relative to control; assay type: functional; conditions: Severe acute respiratory syndrome coronavirus 2, Omicron BA.4, Vero C1008
[22] = system: SARS-CoV-2; test: Antiviral activity against SARS-CoV-2 variant Omicron BA.2 infected in African green monkey Vero E6 cells assessed as reduction in virus-induced cytopathic effect at 37.5 uM preincubated with virus for 1 hr followed by infection with cells and measured after 72 hrs by microscopic analysis; assay type: functional, organism-based; conditions: Severe acute respiratory syndrome coronavirus 2, time 73.0 hrs
[23] = system: SARS-CoV-2; test: Antiviral activity against SARS-CoV-2 variant Omicron BA.3 infected in African green monkey Vero E6 cells assessed as reduction in virus titers of progeny virus in supernatant measured after 72 hrs by CPE assay; assay type: functional, organism-based; conditions: Severe acute respiratory syndrome coronavirus 2, Omicron BA.3, Vero C1008, 72 h
[24] = system: SARS-CoV-2; test: Antiviral activity against SARS-CoV-2 variant Omicron BA.4 infected African green monkey Vero E6 cells assessed as reduction in virus-induced cytopathic effect at 37.5 uM preincubated with virus for 1 hr followed by infection with cells and measured after 72 hrs by microscopic analysis; assay type: functional, organism-based; conditions: Severe acute respiratory syndrome coronavirus 2, time 73.0 hrs

C=C(C)[C@@H]1CCC(C)=C[C@H]1c1c(O)cc(CCCCC)c(C(=O)OC)c1O
active: Activity [3] | Activity [5] | Activity [7] | Activity [8] | Activity [12] | Activity [16] | Activity [17] | Activity [18] | Activity [19] | Activity [20] | Activity [22] | Activity [24]
16.6 µM: IC50 [1]
> 90%: inhibition at 37.5 µM [2] | inhibition at 37.5 µM [4] | inhibition at 37.5 µM [6] | inhibition at 37.5 µM [14] | inhibition at 37.5 µM [15] | inhibition at 37.5 µM [21]
15.9 µM: IC50 [10]
18.6 µM: IC50 [11] | IC50 [23]
19 µM: IC50 [9]
15.5 µM: IC50 [13]
